Reference: ChEMBL document CHEMBL3046776, “Antibacterial and antifungal screening of newly synthesized benzimidazole-clubbed chalcone derivatives” (2013)

Assays:
Assay type in all cases: functional
Escherichia coli = test: Antibacterial activity against Escherichia coli ATCC 25922 assessed as growth inhibition by broth microdilution method
Pseudomonas aeruginosa = test: Antibacterial activity against Pseudomonas aeruginosa ATCC 27853 assessed as growth inhibition by broth microdilution method
Candida albicans = test: Antifungal activity against Candida albicans ATCC 10231 assessed as growth inhibition by broth microdilution method
Staphylococcus aureus = test: Antibacterial activity against Staphylococcus aureus ATCC 25923 assessed as growth inhibition by broth microdilution method
Aspergillus niger = test: Antifungal activity against Aspergillus niger ATCC 1015 assessed as growth inhibition by broth microdilution method
Enterococcus faecalis = test: Antibacterial activity against Enterococcus faecalis ATCC 29212 assessed as growth inhibition by broth microdilution method

| Compound | MIC (Escherichia coli) | MIC (Pseudomonas aeruginosa) | MIC (Candida albicans) | MIC (Staphylococcus aureus) | MIC (Aspergillus niger) | MIC (Enterococcus faecalis) |
| --- | --- | --- | --- | --- | --- | --- |
| O=C(CSc1nc2ccccc2[nH]1)Nc1ccc(C(=O)/C=C/c2cccc(Cl)c2)cc1 | 62.5 µg/mL | 125 µg/mL | 250 µg/mL | 31.2 µg/mL | 125 µg/mL | 125 µg/mL |
| COc1ccc(/C=C/C(=O)c2ccc(NC(=O)CSc3nc4ccccc4[nH]3)cc2)cc1 | 62.5 µg/mL | 250 µg/mL | 125 µg/mL | 31.2 µg/mL | 125 µg/mL | 250 µg/mL |
| COc1cc(/C=C/C(=O)c2ccc(NC(=O)CSc3nc4ccccc4[nH]3)cc2)cc(OC)c1OC | 31.2 µg/mL | 125 µg/mL | 125 µg/mL | 31.2 µg/mL | 250 µg/mL | 250 µg/mL |
| COc1ccc(/C=C/C(=O)c2ccc(NC(=O)CSc3nc4ccccc4[nH]3)cc2)cc1OC | 31.2 µg/mL | 125 µg/mL | 125 µg/mL | 62.5 µg/mL | 62.5 µg/mL | 250 µg/mL |
| O=C(CSc1nc2ccccc2[nH]1)Nc1ccc(C(=O)/C=C/c2c(O)ccc3ccccc23)cc1 | 62.5 µg/mL | 62.5 µg/mL | 125 µg/mL | 62.5 µg/mL | 62.5 µg/mL | 250 µg/mL |
| COc1cc(/C=C/C(=O)c2ccc(NC(=O)CSc3nc4ccccc4[nH]3)cc2)ccc1O | 62.5 µg/mL | 250 µg/mL | 62.5 µg/mL | 15.6 µg/mL | 125 µg/mL | 250 µg/mL |
| O=C(CSc1nc2ccccc2[nH]1)Nc1ccc(C(=O)/C=C/c2ccccc2[N+](=O)[O-])cc1 | 31.2 µg/mL | 250 µg/mL | 250 µg/mL | 31.2 µg/mL | 250 µg/mL | 250 µg/mL |
| O=C(CSc1nc2ccccc2[nH]1)Nc1ccc(C(=O)/C=C/c2ccc(Br)cc2)cc1 | 31.2 µg/mL | 125 µg/mL | 250 µg/mL | 125 µg/mL | 125 µg/mL | 125 µg/mL |
| O=C(CSc1nc2ccccc2[nH]1)Nc1ccc(C(=O)/C=C/c2ccc([N+](=O)[O-])cc2)cc1 | 62.5 µg/mL | 125 µg/mL | 125 µg/mL | 62.5 µg/mL | 62.5 µg/mL | 125 µg/mL |
| OC(Cn1cncn1)(Cn1cncn1)c1ccc(F)cc1F [FLUCONAZOLE] |  |  | 125 µg/mL |  | 62.5 µg/mL |  |
| O=C(CSc1nc2ccccc2[nH]1)Nc1ccc(C(=O)/C=C/c2cccc(Br)c2)cc1 | 62.5 µg/mL | 125 µg/mL | 250 µg/mL | 31.2 µg/mL | 250 µg/mL | 250 µg/mL |
| O=C(CSc1nc2ccccc2[nH]1)Nc1ccc(C(=O)/C=C/c2ccc(Cl)cc2)cc1 | 62.5 µg/mL | 125 µg/mL | 250 µg/mL | 125 µg/mL | 125 µg/mL | 250 µg/mL |
| COc1ccc(OC)c(/C=C/C(=O)c2ccc(NC(=O)CSc3nc4ccccc4[nH]3)cc2)c1 | 31.2 µg/mL | 125 µg/mL | 250 µg/mL | 31.2 µg/mL | 125 µg/mL | 125 µg/mL |
| CN(C)c1ccc(/C=C/C(=O)c2ccc(NC(=O)CSc3nc4ccccc4[nH]3)cc2)cc1 | 31.2 µg/mL | 125 µg/mL | 125 µg/mL | 125 µg/mL | 125 µg/mL | 125 µg/mL |
| O=C(CSc1nc2ccccc2[nH]1)Nc1ccc(C(=O)/C=C/c2ccc(O)cc2)cc1 | 62.5 µg/mL | 250 µg/mL | 125 µg/mL | 31.2 µg/mL | 125 µg/mL | 125 µg/mL |
| O=C(O)c1cn(C2CC2)c2cc(N3CCNCC3)c(F)cc2c1=O [CIPROFLOXACIN] | 125 µg/mL | 125 µg/mL |  | 62.5 µg/mL |  | 125 µg/mL |
| O=C(CSc1nc2ccccc2[nH]1)Nc1ccc(C(=O)/C=C/c2ccccc2)cc1 | 125 µg/mL | 250 µg/mL | 250 µg/mL | 250 µg/mL | 125 µg/mL | 250 µg/mL |
| O=C(CSc1nc2ccccc2[nH]1)Nc1ccc(C(=O)/C=C/c2ccccc2O)cc1 | 31.2 µg/mL | 31.2 µg/mL | 62.5 µg/mL | 62.5 µg/mL | 125 µg/mL | 125 µg/mL |
